Assay results published in article PMC11928584, “H105A peptide eye drops promote photoreceptor survival in murine and human models of retinal degeneration” (Communications Medicine, 2025).
Where a SMILES comes first, the peptide text is derived from it.

How the values were obtained:
[1] = system: retinal function of rd10 mice; assay: Electroretinogram (scotopic a- and b-wave), rd10 mice; format: in vivo, mouse
Method: Electroretinogram (ERG) for rd10 and rd10/Serpinf1^-/- mice were dark-adapted overnight and recorded in both eyes of each animal using an Espion E2 system with ColorDome (Diagnosys LLC) with a heated surface. Briefly, pupils were dilated with 1% tropicamide (Akorn, NDC: 17478-101-12) for 10 min and mice were anesthetized with intraperitoneal injection of Zetamine™ (Ketamine hydrochloride injection, USP; VetOne, NDC 13985-584-10) at 92.5 mg/kg, and AnaSed® (xylazine injection, Akorn Pharmaceuticals, NDC 59399-110-20) at 5.5 mg/kg. Mice were placed on the heated surface and electrodes were placed in the mouth and a subdermal platinum needle electrode was placed in the back of the mouse to serve as ground. Responses were elicited with increasing light impulses with intensity from 0.0001 to 10 cd-seconds per meter squared (cd.s/m^2). Amplitudes for a-wave were measured from stimulus to the trough of the a-wave and b-wave amplitudes were measured from a-wave to b-wave trough or peak. The values from the a and b waves for both eyes were exported to Microsoft Excel to obtained amplitude values for each mouse.
Fig. 5 Effect of daily eyedrops of PEDF peptides on ERG a-wave and b-wave retinal function. a Illustration of the experimental timeline of peptide application. RE and LE refer to the right and left eyes, respectively. Representative ERG waveforms for rd10 (b) and rd10/Serpinf1^-/- (c) mice at P21 in response to a light flash (1 cd.s/m²). Amplitude (y-axis) is plotted against time in milliseconds (ms, x-axis). Treatments are indicated to the right of each plot and are color coded, with control wild type C57BL/6 J mice without peptide treatment shown in blue. A-wave and b-wave are indicated by arrows. Photoreceptor a-wave amplitudes. Averages of photoreceptor a-wave amplitudes for rd10 (d) and rd10/Serpinf1^-/- (e) mice as a function of light intensity (cd/s.m², x-axis). Responses of animals treated with 17-mer are shown in green, H105A in black, and vehicle (HBSS) in red. Wildtype responses are shown in blue. Bipolar cell b-wave amplitudes. Averages of bipolar cell b-wave amplitudes for rd10 (f) and rd10/Serpinf1^-/- (g) mice as a function of light intensity (cd/s.m², x-axis), with treatments as indicated in panels. The number of mice evaluated for the data shown in Panels d-g was five (n = 5) for each rd10, rd10/Serpinf1^-/- and wild type. Each data point represents the average ± SD of each genotype, analyzed by ANOVA with Dunnett’s multiple comparisons. Statistical significance between H105A and vehicle is indicated by ##p ≤ 0.01, ###p ≤ 0.001, ####p ≤ 0.0001, and between H105A and 17-mer by **p ≤ 0.01, ***p ≤ 0.001, ****p ≤ 0.0001.

[2] = system: photoreceptors of rd10 mice; assay: ONL thickness (histology, spider plot), rd10 mice; format: in vivo, mouse; conditions: for OS length and ONL thickness vs vehicle-treated or untreated eyes: daily eye drops, P21
Method: Both eyes were oriented before enucleation to allow sectioning along the dorsal/ventral axis. Enucleated eyes from rd10 and rd10/Serpinf1^-/- mice were incised in the cornea and fixed in 2.5% glutaraldehyde for 20 min and then in 10% neutral buffered formalin at 4 °C for at least 48 h, followed by paraffin embedding, sectioning, and staining with either H&E or immunofluorescence procedures. Slides containing retinal sections were deparaffinized by immersing the slides in various subsequent ethanol dilutions(100%, 95%,70% and 50%), then rinsed with phosphate-buffered saline, pH 7.4 (PBS, Quality Biological, 119-069-101), followed by incubation in blocking buffer containing 0.5% normal donkey serum (Abcam, ab7475), 0.5% bovine serum albumin (BSA, GoldBio, A-420-100), 0.1% Triton X-100 (Sigma, T8787-100) in PBS pH 7.4 for 2 h at room temperature. For fluorescence microscopy, antibodies, and 0.1 µg/ml DAPI were used to immunostain and counterstain the nuclei, respectively. Antibodies used in the study are listed in Supplementary Table 3. Images were acquired using a ZEIS 700 confocal microscope. Fluorescence intensity was quantified using ImageJ, and a rectangle was selected around regions of interest (ROIs), channels were split for multiple antibodies, threshold was adjusted, noise was de-speckled, and fluorescence intensity was measured.
To generate spider plots, the ONL thickness was measured from images passing through the optic nerve (ON) acquired with light microscopy of the retina sections stained with H&E or images of retina sections stained with DAPI with a dorsal-ventral orientation. The ONL thickness in the entire retina sections was measured at 5 different positions from both sides of the ON using ImageJ[28]. Alternatively, for DAPI stained images, a customed macro implemented in ImageJ was used to select only the ONL.
Fig. 4 Effect of eyedrops of 17-mer and H105A peptides on photoreceptor morphology of rd10 and rd10/Serpinf1^-/- mice. a Illustration of the experimental timeline of peptide application. RE and LE refer to the right and left eyes, respectively. Histological Evaluation. Representative microphotographs of retina sections from rd10 (b) and rd10/Serpinf1^-/- (c) mice treated with 17-mer, H105A, or R99A peptides at 1 mg/ml, or with vehicle (HBSS), compared to wild type C57BL/6 J mice. Sections were stained with hematoxylin and eosin. Spider Plot illustrate the thickness of the outer nuclear layer (ONL) in rd10 (d) and rd10/Serpinf1^-/- (e) mice. Five retinas (n = 5) per group were analyzed and each data point represents the average ± SD per location relative to the optic nerve (ON), analyzed using One-way ANOVA with Šídák’s multiple comparisons test. […]

[3] = Stability of peptide H105A against temperature (storage); format: physicochemical
Method: Lyophilized peptides were dissolved in sterile HBSS at 1 mg/ml and stored at −20 °C. Before the peptides were used, the peptide solution was brought to room temperature and subjected to centrifugation (Eppendorf, Centrifuge 5430 R) at 20,800 x g for 10 min at 4 °C to clear and separate particulate material. In case a precipitate was found, the pH of the solution was adjusted to neutral pH with either NaOH or HCl and all peptides were soluble. The concentration of peptide solutions was determined using spectrophotometry (NanoDrop, Thermo Fisher Scientific). The stability of peptide H105A against temperature was performed and summarized in Supplementary Table 2.
Supplementary Table 2. Stability of 17- mer[H105A] peptide.
Concentration (mg/mL) Store Concentration (mg/mL)
*FT, Freeze and thaw cycles daily

[4] = system: photoreceptors of RhoP23H/+ mice; assay: ONL thickness (DAPI sections, spider plot), RhoP23H/+ mice; format: in vivo, mouse; conditions: daily eye drops 1 mg/ml P14-P19, P19, ventral retina
Method: After embedding in paraffin, 14 μm sections were collected. […] Cone photoreceptors were labeled with anti-Opsin Blue (Merck, cat. AB5407) and anti-Opsin Red/Green (Merck, cat. AB5405). […] For nuclear staining, 0.1 μg/ml DAPI was used. Slides were mounted with Mowiol 4–88 (Merck) and images acquired with a Zeiss Axio Imager A2 fluorescence microscope. To count TUNEL positive cells the RETINA Analysis Tool kit for ImageJ was used[37].
Fig. 6 Effects of eye drops containing H105A peptide in the photoreceptors of Rho^P23H/+ mice. a Scheme of experimental design. Daily peptide eye drops (5 µl of 1 mg/ml peptide) were applied to mice starting at P14 until P19 when immunofluorescence of retinal cross sections was performed. […] Histograms show quantification of immunofluorescence intensity for BAX and BCL2 markers. Five retinas per group were analyzed, with two sections per retina. […]

[5] = eye drops every other day P15-P23, ERG at P25

For `CC[C@H](C)[C@H](NC(=O)[C@H](CC(C)C)NC(=O)[C@H](CC(=O)O)NC(=O)[C@H](Cc1ccc(O)cc1)NC(=O)[C@H](Cc1ccc(O)cc1)NC(=O)[C@H](CC(C)C)NC(=O)[C@H](C)NC(=O)[C@H](CCCNC(=N)N)NC(=O)[C@H](C)NC(=O)[C@@H](NC(=O)[C@@H](NC(=O)[C@H](CO)NC(=O)[C@H](CCC(=O)O)NC(=O)[C@@H](NC(=O)[C@H](CCCNC(=N)N)NC(=O)[C@@H](N)CCC(N)=O)[C@@H](C)O)[C@@H](C)CC)[C@@H](C)CC)C(=O)N[C@@H](CO)C(=O)O` [H105A] (H-QRTESIIARALYYDLIS-OH), the “ERG response to low intensity light” value ([1]; daily eye drops 5 µl of 1 mg/ml P15-P24, ERG at P25) was “improved rod photoreceptor function”, the “ERG a-wave” value [1, 5] was “an improvement in a-wave of ERG” and the “ERG b-wave” value [1, 5] was “no significant effect”. The “function of rd10 photoreceptors” value ([1]; eye drops every other day, endpoint extended to P25) was “improved the function of rd10 photoreceptors”, the “ONL thickness” value ([2]; daily eye drops 5 µl of 1 mg/ml P15-P24, assessed P25) was “a rescue in the ONL thickness” and the “OS length and ONL thickness vs vehicle-treated or untreated eyes” value [2] was “longer OS and thicker outer nuclear layer”. For the same compound, the “ONL thickness” value ([2]; eye drops every other day P15-P23, assessed P25) was “a rescue in the ONL thickness”, the “Concentration, Day 8” value ([3]; sample 1, stored at RT) was 1080 µg/mL and the “Concentration, Day 8” value ([3]; sample 2, stored at 4°C) was 1160 µg/mL. For the same compound, the “Concentration, Day 8” value ([3]; sample 3, stored at -20°C) was 1080 µg/mL, the “Concentration, Day 8” value ([3]; sample 4, stored at -20°C [FT], freeze and thaw cycles daily) was 1280 µg/mL and the “ONL thickness” value [4] was “preservation of ONL thickness”.

For `CC[C@H](C)[C@H](NC(=O)[C@H](CC(C)C)NC(=O)[C@H](CC(=O)O)NC(=O)[C@H](Cc1ccc(O)cc1)NC(=O)[C@H](Cc1ccc(O)cc1)NC(=O)[C@H](CC(C)C)NC(=O)[C@H](C)NC(=O)[C@H](CCCNC(=N)N)NC(=O)[C@H](Cc1c[nH]cn1)NC(=O)[C@@H](NC(=O)[C@@H](NC(=O)[C@H](CO)NC(=O)[C@H](CCC(=O)O)NC(=O)[C@@H](NC(=O)[C@H](C)NC(=O)[C@@H](N)CCC(N)=O)[C@@H](C)O)[C@@H](C)CC)[C@@H](C)CC)C(=O)N[C@@H](CO)C(=O)O` [R99A] (H-QATESIIHRALYYDLIS-OH), the “OS length and ONL thickness vs vehicle-treated or untreated eyes” value [2] was “no effect”.
